Each block holds one molecule with its values, some of them ahead of it.
How the values were obtained:
[1] = biological target: T1, Sphingomyelin phosphodiesterase 2 (Rattus norvegicus, UniProt Q9ET64); experiment: Inhibition of rat brain microsomes nSMase; design: species or system Microsome
T1 sequence (Q9ET64 whole entry): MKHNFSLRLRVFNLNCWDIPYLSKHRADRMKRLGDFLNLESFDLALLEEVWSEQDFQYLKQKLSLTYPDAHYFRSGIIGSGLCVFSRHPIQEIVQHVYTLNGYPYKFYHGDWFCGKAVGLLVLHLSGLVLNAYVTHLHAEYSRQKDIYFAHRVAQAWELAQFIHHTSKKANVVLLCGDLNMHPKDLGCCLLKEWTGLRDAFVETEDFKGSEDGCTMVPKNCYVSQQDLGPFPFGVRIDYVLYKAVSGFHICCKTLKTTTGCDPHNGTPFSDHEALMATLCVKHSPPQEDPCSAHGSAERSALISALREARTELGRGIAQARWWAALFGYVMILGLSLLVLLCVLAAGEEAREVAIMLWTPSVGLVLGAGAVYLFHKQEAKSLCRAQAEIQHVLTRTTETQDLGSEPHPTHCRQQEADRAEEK

[2] = biological target: T2, Sphingolipid delta(4)-desaturase DES1 (Rattus norvegicus, UniProt Q5XIF5); experiment: Inhibition of rat liver microsome DES1 incubated for 20 min in presence of NADH by liquid scintillation counter method; type: microsomes
T2 sequence (Q5XIF5 whole entry): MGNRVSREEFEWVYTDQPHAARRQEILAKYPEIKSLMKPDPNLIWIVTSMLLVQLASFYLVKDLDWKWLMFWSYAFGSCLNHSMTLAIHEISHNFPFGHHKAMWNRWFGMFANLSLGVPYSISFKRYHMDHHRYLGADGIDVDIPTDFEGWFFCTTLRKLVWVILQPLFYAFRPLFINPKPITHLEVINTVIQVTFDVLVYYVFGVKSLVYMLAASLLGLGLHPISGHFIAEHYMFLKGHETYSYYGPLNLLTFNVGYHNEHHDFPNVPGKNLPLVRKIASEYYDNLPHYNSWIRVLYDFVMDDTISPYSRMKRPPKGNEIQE

[3] = Inhibition of rat brain aSMase; type: tissue-based
[4] = biological target: T3, Sphingomyelin phosphodiesterase 2 (Rattus norvegicus) (UniProt Q9ET64); experiment: Inhibition of rat brain microsomes nSMase at 200 uM measured after 90 mins relative to control; settings: Microsome
T3 sequence (whole entry): T1 sequence (Q9ET64 whole entry)

[5] = Inhibition of CerS human HCT-116 cells microsomal fraction assessed as reduction in C24 dihydroceramide synthesis by LC-MS/MS analysis; type: microsomes, Microsome
[6] = biological target: T4, Sphingomyelinase C (Bacillus cereus, UniProt P11889); experiment: Inhibition of Bacillus cereus SMaseC
T4 sequence (P11889 whole entry): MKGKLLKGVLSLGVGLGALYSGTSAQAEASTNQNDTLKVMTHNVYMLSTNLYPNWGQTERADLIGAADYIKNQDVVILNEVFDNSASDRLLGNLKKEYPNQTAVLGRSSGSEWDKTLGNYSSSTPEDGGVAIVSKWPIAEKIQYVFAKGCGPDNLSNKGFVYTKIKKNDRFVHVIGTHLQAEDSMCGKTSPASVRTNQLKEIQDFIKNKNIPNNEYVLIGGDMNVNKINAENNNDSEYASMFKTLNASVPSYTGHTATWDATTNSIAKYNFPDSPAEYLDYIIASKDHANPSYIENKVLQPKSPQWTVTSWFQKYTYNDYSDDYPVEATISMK

[7] = biological target: T5, Sphingomyelin phosphodiesterase 2 (Mus musculus, UniProt O70572); experiment: Inhibition of mouse nSMase
T5 sequence (O70572 whole entry): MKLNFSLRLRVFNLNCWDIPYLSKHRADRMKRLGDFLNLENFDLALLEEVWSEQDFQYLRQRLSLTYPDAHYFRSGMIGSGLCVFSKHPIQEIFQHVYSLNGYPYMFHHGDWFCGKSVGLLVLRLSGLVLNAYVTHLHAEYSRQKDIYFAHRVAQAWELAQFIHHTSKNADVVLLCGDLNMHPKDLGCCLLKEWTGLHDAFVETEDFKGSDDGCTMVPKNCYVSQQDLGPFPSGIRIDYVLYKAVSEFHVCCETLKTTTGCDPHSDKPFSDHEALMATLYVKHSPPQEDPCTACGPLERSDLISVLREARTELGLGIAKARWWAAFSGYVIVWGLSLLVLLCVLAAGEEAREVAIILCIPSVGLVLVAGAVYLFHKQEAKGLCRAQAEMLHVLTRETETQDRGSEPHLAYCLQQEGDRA

[8] = Inhibition of bovine brain microsomes nSMase assessed as inhibition constant; design: species or system Bos taurus, Microsome
[9] = species on record: Bos taurus; experiment: Inhibition of bovine brain microsomes nSMase measured after 60 mins relative to control; settings: Microsome
[10] = Inhibition of rat brain aSMase using HMU-PC as substrate incubated for 3 hrs by fluorescence plate reader assay; type: tissue-based
[11] = biological target: T3, Sphingomyelin phosphodiesterase 2 (Rattus norvegicus); experiment: Inhibition of rat brain microsomes nSMase at 350 uM measured after 15 mins relative to control; settings: Microsome
[12] = Inhibition of rat brain aSMase using HMU-PC as substrate incubated for 3 hrs by fluorescence based analysis; type: tissue-based
[13] = biological target: T3, Sphingomyelin phosphodiesterase 2 (Rattus norvegicus); experiment: Inhibition of rat brain microsomes nSMase at 100 uM relative to control; settings: Microsome
[14] = biological target: T3, Sphingomyelin phosphodiesterase 2 (Rattus norvegicus); experiment: Inhibition of rat brain microsomes nSMase at 100 uM incubated for 60 mins relative to control; settings: Microsome
[15] = biological target: Sphingomyelin phosphodiesterase 3 (Homo sapiens) (UniProt Q9NY59); experiment: Inhibition of nSMase2 (unknown origin) at 50 uM relative to control
Chain of Sphingomyelin phosphodiesterase 3 (Homo sapiens) (Q9NY59 whole entry): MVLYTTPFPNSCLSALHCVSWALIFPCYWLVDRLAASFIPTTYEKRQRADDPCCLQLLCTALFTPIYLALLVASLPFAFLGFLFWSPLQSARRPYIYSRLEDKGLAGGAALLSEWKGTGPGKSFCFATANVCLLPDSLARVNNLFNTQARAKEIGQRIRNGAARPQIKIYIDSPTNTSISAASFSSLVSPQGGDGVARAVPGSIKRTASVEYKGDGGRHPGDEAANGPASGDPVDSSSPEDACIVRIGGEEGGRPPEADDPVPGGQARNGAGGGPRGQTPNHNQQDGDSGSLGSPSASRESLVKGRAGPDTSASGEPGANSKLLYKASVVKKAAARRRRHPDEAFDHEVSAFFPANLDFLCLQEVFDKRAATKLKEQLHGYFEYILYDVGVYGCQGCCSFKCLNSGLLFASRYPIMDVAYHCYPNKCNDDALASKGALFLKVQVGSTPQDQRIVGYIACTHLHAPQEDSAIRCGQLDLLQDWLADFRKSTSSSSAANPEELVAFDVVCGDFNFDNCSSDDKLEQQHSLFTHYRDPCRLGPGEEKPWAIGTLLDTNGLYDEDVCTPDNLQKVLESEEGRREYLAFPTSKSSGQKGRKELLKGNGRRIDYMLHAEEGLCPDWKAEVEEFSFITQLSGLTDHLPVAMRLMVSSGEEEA

[16] = system: HEK293; experiment: Competitive inhibition of CerS in HEK293 cells at 10 uM relative to control; type: cell-based; settings: Homo sapiens
[17] = biological target: T6, Ceramide synthase 1 (Homo sapiens) (UniProt P27544); experiment: Inhibition of CerS1 (unknown origin) at 10 uM relative to control
T6 sequence (whole entry): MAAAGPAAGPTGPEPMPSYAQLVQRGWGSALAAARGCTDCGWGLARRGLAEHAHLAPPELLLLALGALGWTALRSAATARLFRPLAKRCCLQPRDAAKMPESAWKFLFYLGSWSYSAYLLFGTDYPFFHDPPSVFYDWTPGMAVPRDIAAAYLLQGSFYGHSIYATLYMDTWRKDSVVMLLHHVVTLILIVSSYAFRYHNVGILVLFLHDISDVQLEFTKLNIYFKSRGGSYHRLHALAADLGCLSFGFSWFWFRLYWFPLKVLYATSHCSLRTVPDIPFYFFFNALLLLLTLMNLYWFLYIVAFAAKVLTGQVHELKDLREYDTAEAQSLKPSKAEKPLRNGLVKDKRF

[18] = biological target: Ceramide synthase 5 (Homo sapiens) (UniProt Q8N5B7); experiment: Inhibition of CerS5 (unknown origin) at 10 uM relative to control
Chain of Ceramide synthase 5 (Homo sapiens) (Q8N5B7 whole entry): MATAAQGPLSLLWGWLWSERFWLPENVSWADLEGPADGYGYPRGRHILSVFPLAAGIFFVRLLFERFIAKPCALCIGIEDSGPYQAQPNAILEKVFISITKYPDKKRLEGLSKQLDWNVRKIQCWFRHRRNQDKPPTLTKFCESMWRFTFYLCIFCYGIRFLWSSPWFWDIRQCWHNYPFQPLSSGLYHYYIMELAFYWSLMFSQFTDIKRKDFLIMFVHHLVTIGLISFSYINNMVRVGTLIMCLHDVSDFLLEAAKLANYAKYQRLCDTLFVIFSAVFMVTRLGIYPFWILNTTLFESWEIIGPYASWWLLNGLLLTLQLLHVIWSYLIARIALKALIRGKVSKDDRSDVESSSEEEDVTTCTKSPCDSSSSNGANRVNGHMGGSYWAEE

[19] = biological target: Ceramide synthase 6 (Homo sapiens) (UniProt Q6ZMG9); experiment: Inhibition of CerS6 (unknown origin) at 10 uM relative to control
Chain of Ceramide synthase 6 (Homo sapiens) (Q6ZMG9 whole entry): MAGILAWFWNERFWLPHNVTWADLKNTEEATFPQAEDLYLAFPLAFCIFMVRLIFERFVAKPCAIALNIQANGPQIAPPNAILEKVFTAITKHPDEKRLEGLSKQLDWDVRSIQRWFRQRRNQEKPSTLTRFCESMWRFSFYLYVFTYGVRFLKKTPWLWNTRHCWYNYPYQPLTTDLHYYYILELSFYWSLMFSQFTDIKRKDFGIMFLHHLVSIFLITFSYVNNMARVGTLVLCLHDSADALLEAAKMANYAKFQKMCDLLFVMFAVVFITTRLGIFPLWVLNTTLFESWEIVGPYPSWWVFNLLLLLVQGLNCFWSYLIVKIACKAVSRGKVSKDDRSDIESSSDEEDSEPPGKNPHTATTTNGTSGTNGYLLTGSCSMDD

IC50 [1]: 4.2 µM
SMILES: CC(C)(O)/C=C/C1=CC(=O)C=CC1=O

IC50 [2]: 1680 nM
SMILES: CC1=C(/C=C/C(C)=C/C=C/C(C)=C/C(=O)Nc2ccc(O)cc2)C(C)(C)CCC1=O

IC50 [1]: 17 µM
SMILES: CC(C)(O)/C=C/c1cc(O)ccc1O

IC50 [3]: 3.1 µM
SMILES: COc1ccc2oc(-c3cc(Br)cc4c3OCOC4)c(N)c(=O)c2c1

IC50 [1]: 16 µM
SMILES: COC(C)(C)/C=C/c1cc(O)ccc1O

IC50 [3]: 9.5 µM
SMILES: Cc1csc(-c2c(C(F)(F)F)oc3cc(O)c(C)cc3c2=O)n1

IC50 [7]: 900 nM
SMILES: CCN(CC)c1ccc(C2NC(=S)NC(C)=C2C(=O)Nc2ccccc2OC)cc1 (stereo not given)

inhibition [15]: 60%
SMILES: CN1c2ccc(OC(=O)Nc3ccccc3)nc2[C@]2(C)CCO[C@H]12

IC50 [7]: 2400 nM
SMILES: S=c1[nH]nc(Nc2ccc(Cl)cc2)n1-c1ccc(Cl)cc1

inhibition [17]: > 90%
inhibition [18]: 50%
inhibition [19]: 50%
SMILES: CCCCCCCOc1ccc(CC[C@](C)(N)CO)cc1
inhibition [16]: 50%

The next lines start with the molecule.

SMILES: CCCCCCCCCC(=O)N[C@H](C)C(=O)NC1=CC2(CO2)C(=O)C=C1 (stereo not given in full)
inhibition [4]: 33%

SMILES: CCCCCCCCCCCCCCCCC(=O)NC(CO)(CO)CCc1ccc(OCCCCCCC)cc1
IC50 [5]: 63.6 µM

SMILES: CCCCCCC[C@@H](O)[C@H](CCCP(=O)([O-])OCC[N+](C)(C)C)NC(=O)CCCCC
IC50 [6]: 78 µM

SMILES: CCCCCCCCC/C=N/NC(=N)N
IC50 [1]: 8.2 µM

SMILES: S=c1[nH]nc(-c2cccs2)n1CC1CCCCC1
IC50 [7]: 2500 nM

SMILES: CCCCCCCCCCCCCCNC(=S)N[C@H](CO)[C@H](O)c1ccc([N+](=O)[O-])cc1
Ki [8]: 2500 nM
inhibition [9]: 90%

SMILES: CCCCCCCCCC(O)(P(=O)(O)O)P(=O)(O)O
IC50 [10]: 80 nM

SMILES: C/C=C/C=C/C(=O)N[C@@H](CO)[C@H]1CC(CCCCCC)C(=O)O1 (stereo not given in full)
inhibition [11]: 90%

SMILES: CCCCCCC[C@@H](O)[C@H](CC(F)(F)P(=O)([O-])OCC[N+](C)(C)C)NC(=O)CCCCC
IC50 [6]: 57 µM

SMILES: CCOS(=O)(=O)O[C@@H]1[C@H](O)[C@H](OP(=O)(O)O)[C@@H](O)[C@H](OP(=O)(O)O)[C@H]1O
IC50 [12]: > 100 µM

SMILES: CCCCCCC[C@@H](O)[C@H](CCP(=O)([O-])OCC[N+](C)(C)C)NC(=O)CCCCC
IC50 [6]: 120 µM

SMILES: CCCCCCCCCCCC(O)(P(=O)(O)O)P(=O)(O)O
IC50 [10]: 70 nM

SMILES: CCCCCCCCCCCC(=O)NC1=CC(=O)[C@H]2O[C@H]2C1=O
inhibition [13]: 10%
inhibition [14]: 88%

SMILES: CC(C)C/C=C/C=C/C(=O)NC1=CC(=O)[C@H]2O[C@H]2C1=O
inhibition [13]: 90%
inhibition [14]: 98%

Source: ChEMBL document CHEMBL5226284, “Small Molecule Inhibitors Targeting Biosynthesis of Ceramide, the Central Hub of the Sphingolipid Network” (J Med Chem, 2021)
